Values of other authors, collected in article PMC9775177, “NLRP3-Inflammasome Inhibition with IZD334 Does Not Reduce Cardiac Damage in a Pig Model of Myocardial Infarction” (Biomedicines, 2022).

What was measured:
large animal model of MI = test system: large animal model of MI; parameters: method as in PMID 27432019; settings: cited from earlier work
IR injury in mice = test system: IR injury in mice; parameters: method as in PMID 30747785; settings: cited from earlier work
[1] = large animal model, 7 days following MI

Row | SMILES | IS (infarct size) (large animal model of MI; [1]) | LV function (large animal model of MI; [1]) | circulating markers of inflammation (large animal model of MI; pigs treated with MCC950) | infarct development (IR injury in mice) | left ventricular dysfunction (IR injury in mice)
1 | CC(C)(O)c1coc(S(=O)(=O)NC(=O)Nc2c3c(cc4c2CCC4)CCC3)c1 [MCC950] | dose-dependently reduced IS | improvement in LV function | only modestly lower | – | –
2 | CS(=O)(=O)CCC#N [OLT1177] | – | – | – | limited infarct development | prevented left ventricular dysfunction
